The values below come from patent publication US20220024921A1, “1,3,4-OXADIAZOLONE COMPOUND AND PHARMACEUTICAL” (NIPPON SHINYAKU CO., LTD., priority 2018, published 2022).

Experiment [1] concerns the target T1, PIM1 serine/threonine kinase (Homo sapiens, UniProt P11309).
T1 construct: purchased Carna Bioscience, Inc
Put plainly: PIM1 serine/threonine kinase inhibitory effect. The experiment is classed as biochemical. The settings on record: PIM1 serine/threonine kinase activity; ATP 40 μM; 30° C., 30 minutes. An outline of the steps: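 Compounds were tested in duplicate from 0.01 to 10000 nM final against PIM1 kinase (0.15 μg/ml). The reaction ran for 30 minutes at 30° C with 40 μM ATP and 0.5 μM biotin-tagged substrate at pH 7.0. Phosphorylation was read by time-resolved FRET (OD665/OD620) after 1 h; IC50 by non-linear fit.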

The target in experiment [2] is PIM1 transgenic cells (Ba/F3) (Homo sapiens, UniProt P11309). Put plainly: Proliferation inhibitory effect on PIM1 transgenic cells. The settings on record: proliferation inhibition, 72 hours, Cell Counting Kit-8, read-out: PIM1 IC50. It counts as cell-based, mouse. The essentials: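 Mouse Ba/F3 pro-B cells were retrovirally transduced with human PIM1 so that their proliferation depends on PIM1. Cells were treated with compound at 1–10000 nM final for 72 h, then read by CCK-8 (OD450−OD650). Inhibition was set against DMSO (0%) and no-cell blank (100%), and IC50 was obtained by two-parameter logistic regression.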
PIM1 transgenic cells (Ba/F3), sequence (P11309 whole entry, stated change not applied): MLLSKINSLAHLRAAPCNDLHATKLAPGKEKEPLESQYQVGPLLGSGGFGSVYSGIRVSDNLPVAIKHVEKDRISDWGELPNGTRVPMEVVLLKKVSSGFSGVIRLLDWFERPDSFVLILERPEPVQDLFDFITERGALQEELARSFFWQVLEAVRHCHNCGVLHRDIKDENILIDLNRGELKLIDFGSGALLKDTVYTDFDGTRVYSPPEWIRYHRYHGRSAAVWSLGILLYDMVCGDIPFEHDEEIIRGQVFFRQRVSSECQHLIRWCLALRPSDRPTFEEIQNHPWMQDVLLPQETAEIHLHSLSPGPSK
(Formazan colour is commonly taken as a measure of viable cells.)

In general, IC50 refers to the concentration that inhibits the measured activity by half.

Where a name gives a salt, the structure may show the parent alone.

T1 sequence (P11309 whole entry): as the sequence (P11309 whole entry, stated change not applied) above

In turn, `N[C@H]1CC[C@H](COc2cc(-c3n[nH]c(=O)o3)ccc2Cl)CC1` [Example 241, 5-(3-{[(1r,4r)-4-aminocyclohexyl]methoxy}-4-chlorophenyl)-1,3,4-oxadiazol-2(3H)-one] had an IC50 in experiment [1] of 3.7 nM. Besides, in experiment [2], the GI50 is 79 nM.
On the same counts, the results for `CC(N)[C@H]1CC[C@H](Nc2cc(-c3n[nH]c(=O)o3)ccc2C(F)(F)F)CC1` (stereo partly drawn) [Example 39, 5-[3-{[(1r,4r)-4-(1-aminoethyl)cyclohexyl]amino}-4-(trifluoromethyl)phenyl]-1,3,4-oxadiazol-2(3H)-one hydrochloride] are 2.2 nM and 100 nM.
On the same counts, the results for `C[C@@H]([C@H]1CC[C@H](N)CC1)N1CCOc2c(F)cc(-c3n[nH]c(=O)o3)cc21` [Example 249, 5-(4-{(1S)-1-[(1r,4S)-4-aminocyclohexyl]ethyl}-8-fluoro-3,4-dihydro-2H-1,4-benzoxazin-6-yl)-1,3,4-oxadiazol-2(3H)-one] are 4.2 nM and 110 nM.
For `C[C@H](Nc1cc(-c2n[nH]c(=O)o2)cc2[nH]ncc12)C1CCNCC1` [Example 100, 5-(4-{[(1S)-1-(piperidin-4-yl)ethyl]amino}-1H-indazol-6-yl)-1,3,4-oxadiazol-2(3H)-one dihydrochloride] the same measures were 1.9 nM and 260 nM.
`C[C@H](Nc1cc(-c2n[nH]c(=O)o2)cc(F)c1OC(F)(F)F)C1(C)CCNCC1` [Example 207, 5-[3-fluoro-5-{[(1S)-1-(4-methylpiperidin-4-yl)ethyl]amino}-4-(trifluoromethoxy)phenyl]-1,3,4-oxadiazol-2(3H)-one] showed an IC50 in experiment [1] of 2.6 nM. Moreover, in experiment [2], the GI50 worked out at 50 nM.
In experiment [1], `N[C@H]1CC[C@H](COc2cc(-c3n[nH]c(=O)o3)ccc2C(F)(F)F)CC1` [Example 240, 5-[3-{[(1r,4r)-4-aminocyclohexyl]methoxy}-4-(trifluoromethyl)phenyl]-1,3,4-oxadiazol-2(3H)-one] registered an IC50 of 1.9 nM. For the same compound, the GI50 in experiment [2] stood at 87 nM.
For `O=c1[nH]nc(-c2ccc(C(F)(F)F)c(NCC3C4CCC3CNC4)c2)o1` (stereo not drawn) [Example 133, 5-[3-{[(3-azabicyclo[3.2.1]octan-8-yl)methyl]amino}-4-(trifluoromethyl)phenyl]-1,3,4-oxadiazol-2(3H)-one hydrochloride] the same measures were 8 nM and 200 nM.
For `C=C(C)c1c(F)cc(-c2n[nH]c(=O)o2)cc1N[C@@H](C)[C@H]1CC[C@H](N)CC1` [Example 232, 5-[3-({(1S)-1-[(1r,4S)-4-aminocyclohexyl]ethyl}amino)-5-fluoro-4-(prop-1-en-2-yl)phenyl]-1,3,4-oxadiazol-2(3H)-one hydrochloride] the same measures were 2 nM and 28 nM.
In the case of `CC(CCCCN)Nc1cc(-c2n[nH]c(=O)o2)ccc1C(F)(F)F` (stereo not drawn) [Example 5, 5-{3-[(6-aminohexan-2-yl)amino]-4-(trifluoromethyl)phenyl}-1,3,4-oxadiazol-2(3H)-one hydrochloride], the IC50 in experiment [1] was 11 nM. Also, the GI50 in experiment [2] stood at 500 nM.
On to `O=c1[nH]nc(-c2ccc(Br)c(NCC3CCNCC3)c2)o1` [Example 50, 5-(4-bromo-3-{[(piperidin-4-yl)methyl]amino}phenyl)-1,3,4-oxadiazol-2(3H)-one hydrochloride], for which it took 3.7 nM to reach half-maximal inhibition in experiment [1] (IC50). Besides, the GI50 in experiment [2] was found to be 1800 nM.
For `C[C@H](Nc1cc(-c2n[nH]c(=O)o2)ccc1C(F)(F)F)[C@H]1C[C@@H](NCC2CC2)C1` [Example 196, 5-[3-{[(1S)-1-{(1s,3R)-3-[(cyclopropylmethyl)amino]cyclobutyl}ethyl]amino}-4-(trifluoromethyl)phenyl]-1,3,4-oxadiazol-2(3H)-one hydrochloride] the same measures were 9.2 nM and 250 nM.
Consider `CC[C@H](Nc1cc(-c2n[nH]c(=O)o2)ccc1C(F)(F)F)C1CCNCC1` [Example 138, 5-[3-{[(1S)-1-(piperidin-4-yl)propyl]amino}-4-(trifluoromethyl)phenyl]-1,3,4-oxadiazol-2(3H)-one hydrochloride], for which the IC50 in experiment [1] stood at 4 nM. In experiment [2], the GI50 was 73 nM.
In turn, `N[C@H]1CO[C@H](C2CC2c2cc(-c3n[nH]c(=O)o3)ccc2C(F)(F)F)OC1` (stereo partly drawn) [Example 161, 5-[3-{2-[(2r,5r)-5-amino-1,3-dioxan-2-yl]cyclopropyl}-4-(trifluoromethyl)phenyl]-1,3,4-oxadiazol-2(3H)-one hydrochloride] yielded a half-maximal inhibitory concentration (IC50) in experiment [1] of 29 nM. In addition, in experiment [2], the GI50 was found to be 1000 nM.
`C[C@H](Nc1cc(-c2n[nH]c(=O)o2)cc(Br)c1Cl)[C@H]1C[C@@H](N)C1` [Example 182, 5-[3-({(1S)-1-[(1s,3R)-3-aminocyclobutyl]ethyl}amino)-5-bromo-4-chlorophenyl]-1,3,4-oxadiazol-2(3H)-one hydrochloride] came in with a half-maximal inhibitory concentration (IC50) in experiment [1] of 1.7 nM. Also, the GI50 in experiment [2] came out at 45 nM.
On the same counts, the results for `C[C@@H]1C[C@H]([C@H](C)Nc2cc(-c3n[nH]c(=O)o3)cc(F)c2OC(F)F)CCN1` [Example 216, 5-[4-(difluoromethoxy)-3-fluoro-5-({(1S)-1-[(2R,4R)-2-methylpiperidin-4-yl]ethyl}amino)phenyl]-1,3,4-oxadiazol-2(3H)-one] are 3.5 nM and 45 nM.
On the same counts, the results for `O=c1[nH]nc(-c2ccc(C(F)(F)F)c(CCC3CCNCC3)c2)o1` [Example 26, 5-{3-[2-(piperidin-4-yl)ethyl]-4-(trifluoromethyl)phenyl}-1,3,4-oxadiazol-2(3H)-one hydrochloride] are 12 nM and 910 nM.
For `O=c1[nH]nc(-c2ccc(Cl)c(NC[C@@H]3CCNC3)c2)o1` [Example 49, 5-[4-chloro-3-({[(3R)-pyrrolidin-3-yl]methyl}amino)phenyl]-1,3,4-oxadiazol-2(3H)-one hydrochloride] the same measures were 18 nM and 7600 nM.
The compound `C[C@@H](C1CCNCC1)N1CCCOc2c(F)cc(-c3n[nH]c(=O)o3)cc21` [Example 254, 5-{9-fluoro-5-[(1S)-1-(piperidin-4-yl)ethyl]-2,3,4,5-tetrahydro-1,5-benzoxazepin-7-yl}-1,3,4-oxadiazol-2(3H)-one hydrochloride] returned an IC50 in experiment [1] of 15 nM. The GI50 in experiment [2] was 680 nM.
Regarding `NCCC1CCCN(c2cc(-c3n[nH]c(=O)o3)ccc2C(F)(F)F)C1` (stereo not drawn) [Example 11, 5-{3-[3-(2-aminoethyl)piperidin-1-yl]-4-(trifluoromethyl)phenyl}-1,3,4-oxadiazol-2(3H)-one hydrochloride], half-maximal inhibition in experiment [1] (IC50) was put at 13 nM. The GI50 in experiment [2] was 330 nM.
For `C[C@@H]1CNCC[C@@H]1[C@H](C)Nc1cc(-c2n[nH]c(=O)o2)ccc1OC(F)F` [Example 220, 5-[4-(difluoromethoxy)-3-({(1S)-1-[(3S,4S)-3-methylpiperidin-4-yl]ethyl}amino)phenyl]-1,3,4-oxadiazol-2(3H)-one] the same measures were 6.1 nM and 110 nM.
`O=c1[nH]nc(-c2ccc(C(F)(F)F)c(N[C@H](C3CCNCC3)C(F)(F)F)c2)o1` [Example 146, 5-[4-(trifluoromethyl)-3-{[(1R)-2,2,2-trifluoro-1-(piperidin-4-yl)ethyl]amino}phenyl]-1,3,4-oxadiazol-2(3H)-one hydrochloride] came in with a concentration for half-maximal inhibition (IC50) in experiment [1] of 12 nM. The GI50 in experiment [2] worked out at 89 nM.
For `CCC1(CNc2cc(-c3n[nH]c(=O)o3)ccc2C(F)(F)F)CCNCC1` [Example 122, 5-[3-{[(4-ethylpiperidin-4-yl)methyl]amino}-4-(trifluoromethyl)phenyl]-1,3,4-oxadiazol-2(3H)-one hydrochloride] the same measures were 6.5 nM and 220 nM.
For `O=c1[nH]nc(-c2ccc(C(F)(F)F)c(C#CC3CCNCC3)c2)o1` [Example 29, 5-{3-[(piperidin-4-yl)ethynyl]-4-(trifluoromethyl)phenyl}-1,3,4-oxadiazol-2(3H)-one hydrochloride] the same measures were 18 nM and 1100 nM.
For `N[C@H]1CC[C@H](CNc2cc(-c3n[nH]c(=O)o3)cc(F)c2Cl)CC1` [Example 86, 5-[3-({[(1r,4r)-4-aminocyclohexyl]methyl}amino)-4-chloro-5-fluorophenyl]-1,3,4-oxadiazol-2(3H)-one hydrochloride] the same measures were 0.6 nM and 61 nM.
In the case of `Cc1c(F)cc(-c2n[nH]c(=O)o2)cc1N[C@@H](C)C1CCNCC1` [Example 99, 5-(3-fluoro-4-methyl-5-{[(1S)-1-(piperidin-4-yl)ethyl]amino}phenyl)-1,3,4-oxadiazol-2(3H)-one dihydrochloride], 3.9 nM corresponded to half-maximal inhibition in experiment [1] (IC50). Besides, the GI50 in experiment [2] was determined as 97 nM.
On the same counts, the results for `O=c1[nH]nc(-c2ccc(C(F)(F)F)c(NC3CC34CCNCC4)c2)o1` (stereo not drawn) [Example 42, 5-{3-[(6-azaspiro[2.5]octan-1-yl)amino]-4-(trifluoromethyl)phenyl}-1,3,4-oxadiazol-2(3H)-one hydrochloride] are 10 nM and 270 nM.
With `CN(CC1CCNCC1)c1cc(-c2n[nH]c(=O)o2)ccc1C(F)(F)F` [Example 51, 5-[3-{methyl[(piperidin-4-yl)methyl]amino}-4-(trifluoromethyl)phenyl]-1,3,4-oxadiazol-2(3H)-one hydrochloride], the midpoint of inhibition in experiment [1], the IC50, lay at 14 nM. Also, the GI50 in experiment [2] stood at 3100 nM.
